This note sets out measurements from ChEMBL document CHEMBL1125663, “Function of negative charge in the "address domain" of deltorphins” (J Med Chem, 1991).

pKi: −log10 of the molar value. Square brackets hold non-standard residues; d marks the D form. Peptide text beside a SMILES is read from it.

Format in all cases: cell membranes
Test [1] addresses T1, Mu-type opioid receptor (Rattus norvegicus, UniProt P33535). Nature of the test: Binding affinity against Opioid receptor mu 1 in P2 membrane preparation of rat brain by [3H]DAGO displacement.
Test [2] deals with T2, Delta-type opioid receptor (Rattus norvegicus, UniProt P33533). Nature of the test: Binding affinity against Opioid receptor delta 1 in P2 membrane preparation of rat brain by [3H]DADLE displacement.
T2 sequence (P33533 whole entry): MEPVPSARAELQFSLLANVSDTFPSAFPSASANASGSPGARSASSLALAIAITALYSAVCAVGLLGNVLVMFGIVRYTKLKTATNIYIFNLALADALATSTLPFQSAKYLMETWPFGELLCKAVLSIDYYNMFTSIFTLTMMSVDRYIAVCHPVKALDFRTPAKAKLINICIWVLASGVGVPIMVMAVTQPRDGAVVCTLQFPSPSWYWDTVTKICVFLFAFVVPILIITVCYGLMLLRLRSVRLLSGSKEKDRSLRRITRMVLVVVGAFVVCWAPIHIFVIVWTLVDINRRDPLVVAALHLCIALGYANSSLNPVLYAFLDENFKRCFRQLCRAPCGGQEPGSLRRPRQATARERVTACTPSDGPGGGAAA
The target of test [3] is T2, Delta-type opioid receptor. The test is described as follows: Inhibition of [3H]-DADLE binding to opioid receptor delta in P2 membrane preparation of rat brain.
In test [4] the target is T1, Mu-type opioid receptor. The test is described as follows: Inhibition of [3H]DAGO binding to trat brain opioid receptor mu in P2 membrane.

T1 sequence (P33535 whole entry): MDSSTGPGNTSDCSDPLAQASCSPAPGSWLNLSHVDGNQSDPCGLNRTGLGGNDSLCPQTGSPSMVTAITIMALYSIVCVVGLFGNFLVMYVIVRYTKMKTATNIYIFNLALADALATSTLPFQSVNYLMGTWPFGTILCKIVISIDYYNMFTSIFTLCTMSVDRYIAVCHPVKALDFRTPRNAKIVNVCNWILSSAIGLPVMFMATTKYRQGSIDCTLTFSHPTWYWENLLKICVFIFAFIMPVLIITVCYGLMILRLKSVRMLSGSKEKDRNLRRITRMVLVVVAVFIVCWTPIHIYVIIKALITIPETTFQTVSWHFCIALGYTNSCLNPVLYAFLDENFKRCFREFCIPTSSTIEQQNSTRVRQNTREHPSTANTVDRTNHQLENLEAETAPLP

In the case of `CSCC[C@@H](NC(=O)[C@@H](N)Cc1ccc(O)cc1)C(=O)N[C@@H](Cc1ccccc1)C(=O)N[C@@H](Cc1cnc[nH]1)C(=O)N[C@@H](CC(C)C)C(=O)N[C@@H](CC(=O)O)C(=O)N[C@@H](CC(=O)O)C(=O)O`, the pKi was 5.68 at Mu-type opioid receptor [1] and 8.22 in test [2].
With `CC(C)[C@H](NC(=O)[C@H](Cc1ccccc1)NC(=O)[C@H](C)NC(=O)[C@@H](N)Cc1ccc(O)cc1)C(=O)N[C@H](C(=O)N[C@@H](CC(=O)O)C(=O)NCC(N)=O)C(C)C` (H-YAFVVDG-NH2), the pKi on Mu-type opioid receptor [1] was 6.83; in test [2], 8.03.
For `CSCC[C@H](NC(=O)[C@H](CC(C)C)NC(=O)[C@H](Cc1c[nH]cn1)NC(=O)[C@H](Cc1ccccc1)NC(=O)[C@@H](CCSC)NC(=O)[C@@H](N)Cc1ccc(O)cc1)C(=O)N[C@@H](CC(=O)O)C(=O)O` (H-Y[dM]FHLMD-OH) the same measures were 5.57 and 7.97.
Take `CSCC[C@H](NC(=O)[C@H](CC(C)C)NC(=O)[C@H](Cc1cnc[nH]1)NC(=O)[C@H](Cc1ccccc1)NC(=O)[C@@H](CCSC)NC(=O)[C@@H](N)Cc1ccc(O)cc1)C(=O)N[C@@H](CC(=O)O)C(N)=O` [DELTORPHIN A] (H-Y[dM]FHLMD-NH2): the pKi at Mu-type opioid receptor [1] is 6.47; in test [2], 9.92.
For the compound `CSCC[C@H](NC(=O)[C@H](CC(C)C)NC(=O)[C@H](Cc1c[nH]cn1)NC(=O)[C@H](Cc1ccccc1)NC(=O)[C@@H](CCSC)NC(=O)[C@@H](N)Cc1ccc(O)cc1)C(=O)N[C@@H](CC(N)=O)C(N)=O`, the results for the pKi (on Mu-type opioid receptor [1]; in test [2]) were 6.93 and 9.66, respectively.
With `CC(C)[C@H](NC(=O)CNC(=O)[C@H](Cc1ccccc1)NC(=O)[C@H](C)NC(=O)[C@@H](N)Cc1ccc(O)cc1)C(=O)N[C@H](C(=O)N[C@@H](CC(=O)O)C(=O)O)C(C)C` (H-YAFGVVD-OH), the pKi at Mu-type opioid receptor [1] is 7.24; in test [2], 8.06.
For `CCCC[C@H](NC(=O)[C@H](CC(C)C)NC(=O)[C@H](Cc1cnc[nH]1)NC(=O)[C@H](Cc1ccccc1)NC(=O)[C@@H](CCSC)NC(=O)[C@@H](N)Cc1ccc(O)cc1)C(=O)N[C@@H](CC(=O)O)C(N)=O`, the values for the pKi (on Mu-type opioid receptor [1]; in test [2]) were 6.69 and 9.66, respectively.
Regarding `CC(C)[C@H](NC(=O)[C@H](CC(=O)O)NC(=O)[C@H](Cc1ccccc1)NC(=O)[C@H](C)NC(=O)[C@@H](N)Cc1ccc(O)cc1)C(=O)N[C@H](C(=O)NCC(=O)O)C(C)C`, the pKi on Mu-type opioid receptor [1] is 5.79; in test [2] it was 8.22.
As for `CC(C)[C@H](NC(=O)[C@H](CCC(=O)O)NC(=O)[C@H](Cc1ccccc1)NC(=O)[C@H](C)NC(=O)[C@@H](N)Cc1ccc(O)cc1)C(=O)N[C@H](C(=O)NCC(=O)O)C(C)C` [DELTORPHINE II], in test [3], the negative-log Ki (pKi) is 9.51.
`CSCC[C@H](NC(=O)[C@H](CC(=O)O)NC(=O)[C@H](CC(=O)O)NC(=O)[C@H](Cc1ccccc1)NC(=O)[C@@H](CCSC)NC(=O)[C@@H](N)Cc1ccc(O)cc1)C(=O)N[C@@H](Cc1c[nH]cn1)C(N)=O`: the negative logarithm of the Ki (pKi) was 5.80 at Mu-type opioid receptor [1] and 5.72 in test [2].
Take `CC(C)[C@H](NC(=O)[C@H](CC(=O)O)NC(=O)[C@@H](NC(=O)[C@H](Cc1ccccc1)NC(=O)[C@H](C)NC(=O)[C@@H](N)Cc1ccc(O)cc1)C(C)C)C(=O)NCC(N)=O` (H-YAFVDVG-NH2): the pKi at Mu-type opioid receptor [1] was 6.56; in test [2], 8.91.
Regarding `CC(C)[C@H](NC(=O)[C@H](CCC(N)=O)NC(=O)[C@H](Cc1ccccc1)NC(=O)[C@@H](C)NC(=O)[C@@H](N)Cc1ccc(O)cc1)C(=O)N[C@H](C(=O)NCC(=O)O)C(C)C`, the results for the negative-log Ki (pKi) (on Mu-type opioid receptor [1]; in test [2]) were 6.82 and 9.70, respectively.
For the compound `CC(C)[C@H](NC(=O)[C@H](CC(N)=O)NC(=O)[C@H](Cc1ccccc1)NC(=O)[C@H](C)NC(=O)[C@@H](N)Cc1ccc(O)cc1)C(=O)N[C@H](C(=O)NCC(N)=O)C(C)C` (H-YAFNVVG-NH2), the negative-log Ki (pKi) in test [3] is 9.19; on Mu-type opioid receptor [4] it was 6.76.
Regarding `CSCC[C@H](NC(=O)[C@H](CC(C)C)NC(=O)[C@H](CC(=O)O)NC(=O)[C@H](Cc1ccccc1)NC(=O)[C@@H](CCSC)NC(=O)[C@@H](N)Cc1ccc(O)cc1)C(=O)N[C@@H](CC(=O)O)C(N)=O`, the pKi at Mu-type opioid receptor [1] was 4.98; in test [2] it was 8.11.
Turning to `CSCC[C@@H](NC(=O)[C@@H](N)Cc1ccc(O)cc1)C(=O)N[C@@H](Cc1ccccc1)C(=O)N[C@@H](Cc1cnc[nH]1)C(=O)N[C@@H](CC(C)C)C(=O)N[C@@H](CC(=O)O)C(=O)N[C@@H](CC(=O)O)C(N)=O`, the negative logarithm of the Ki (pKi) at Mu-type opioid receptor [1] is 5.47; in test [2], 8.51.
On to `CC(C)[C@H](NC(=O)[C@H](CCC(=O)O)NC(=O)[C@H](Cc1ccccc1)NC(=O)[C@@H](C)NC(=O)[C@@H](N)Cc1ccc(O)cc1)C(=O)N[C@H](C(=O)NCC(=O)O)C(C)C` [DELTORPHIN], for which, in test [3], the pKi is 8.10.
Compound `C[C@@H](NC(=O)[C@@H](N)Cc1ccc(O)cc1)C(=O)N[C@@H](Cc1ccccc1)C(=O)NCC(=O)N[C@@H](Cc1ccc(O)cc1)C(=O)N1CCC[C@H]1C(=O)N[C@@H](CO)C(N)=O` [DERMORPHIN] showed a pKi on Mu-type opioid receptor [1] of 9.15.
`C[C@@H](NC(=O)[C@@H](N)Cc1ccc(O)cc1)C(=O)NCC(=O)N(C)[C@@H](Cc1ccccc1)C(=O)NCCO` [DAMGO]: the pKi in test [2] was 6.74.
Consider `CSCC[C@H](NC(=O)[C@H](CC(C)C)NC(=O)[C@H](Cc1cnc[nH]1)NC(=O)[C@H](Cc1ccccc1)NC(=O)[C@@H](CCSC)NC(=O)[C@@H](N)Cc1ccc(O)cc1)C(=O)N[C@@H](CC(=O)O)C(C)=O`, for which the negative-log Ki (pKi) at Mu-type opioid receptor [1] is 5.49; in test [2], 6.81.
`CC(C)[C@H](NC(=O)[C@H](CC(=O)O)NC(=O)[C@H](Cc1ccccc1)NC(=O)[C@@H](C)NC(=O)[C@@H](N)Cc1ccc(O)cc1)C(=O)N[C@H](C(=O)NCC(N)=O)C(C)C` [DELTORPHIN C]: the pKi was 9.68 in test [3] and 6.41 on Mu-type opioid receptor [4].
